# Assay results from the supplement of paper PMC10307832.
# Experiments:
# Test in all cases: relative viability (nuclei count vs DMSO), 5 days (fraction); higher = more cells survive
# [1] = compound: Nc1nc2[nH]cc(CCc3ccc(C(=O)N[C@@H](CCC(=O)O)C(=O)O)cc3)c2c(=O)[nH]1 [Pemetrexed] + CC(=O)Nc1cccc(-n2c(=O)n(C3CC3)c(=O)c3c(Nc4ccc(I)cc4F)n(C)c(=O)c(C)c32)c1 [Trametinib] (partner 0.02 µM)
# Outline: (§1)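 Lung cancer cell lines in 1536-well plates were dosed by pin tool the day after seeding, either with one drug alone or with a fixed anchor-drug dose plus five library-drug doses (not always all listed) in √10 steps. After 5 days, cells were fixed and their nuclei stained in one step (final 0.05% Triton X-100, 1% formaldehyde, 1 ug/ml Hoechst), then counted on 4× images. Relative viability is the nuclei count in treated wells divided by that in vehicle wells. Values are medians of duplicate plates.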
# [2] = compound: CC[C@H](Nc1ncnc2[nH]cnc12)c1nc2cccc(F)c2c(=O)n1-c1ccccc1 [Idelalisib] + COc1cccc2cc(-c3nc([C@H]4CC[C@H](C(=O)O)CC4)n4ncnc(N)c34)[nH]c12 [OSI-027] (partner 0.5 µM)
# Outline: as §1
# [3] = compound: CC[C@H](Nc1ncnc2[nH]cnc12)c1nc2cccc(F)c2c(=O)n1-c1ccccc1 [Idelalisib] + Cc1cc(Nc2cc(N3CCN(C)CC3)nc(Sc3ccc(NC(=O)C4CC4)cc3)n2)n[nH]1 [Tozasertib] (partner 0.1 µM)
# Outline: as §1
# [4] = compound: CC[C@H](Nc1ncnc2[nH]cnc12)c1nc2cccc(F)c2c(=O)n1-c1ccccc1 [Idelalisib] + CCNC(=O)c1noc(-c2cc(C(C)C)c(O)cc2O)c1-c1ccc(CN2CCOCC2)cc1 [Luminespib] (partner 0.01 µM)
# Outline: as §1
cell line,measurement,setting,value
UMC-11,relative viability,[1]; first compound 0.002 µM,0.659
same,relative viability,[1]; first compound 0.006325 µM,0.663
same,relative viability,[1]; first compound 0.02 µM,0.819
same,relative viability,[1]; first compound 0.06325 µM,0.655
same,relative viability,[1]; first compound 0.2 µM,0.619
same,relative viability,[2]; first compound 0.04 µM,0.429
same,relative viability,[2]; first compound 0.1265 µM,0.491
same,relative viability,[2]; first compound 0.4 µM,0.542
same,relative viability,[2]; first compound 1.265 µM,0.513
same,relative viability,[2]; first compound 4 µM,0.42
same,relative viability,[3]; first compound 0.04 µM,0.218
same,relative viability,[3]; first compound 0.1265 µM,0.192
same,relative viability,[3]; first compound 0.4 µM,0.203
same,relative viability,[3]; first compound 1.265 µM,0.188
same,relative viability,[3]; first compound 4 µM,0.192
same,relative viability,[4]; first compound 0.04 µM,0.902
same,relative viability,[4]; first compound 0.1265 µM,1.13
same,relative viability,[4]; first compound 0.4 µM,1.08
same,relative viability,[4]; first compound 1.265 µM,1.03
same,relative viability,[4]; first compound 4 µM,0.949
